# Patent US10426169B2 (priority 2011, dated 2019)
# Tested on: Phytophthora infestans
# Test: not given
# Type: in vivo, Phytophthora infestans on young tomato plants
# Settings: protective, tomato plants, active ingredient concentration 100 ppm, evaluation 7 days after inoculation; 0% = control, 100% = no infection
row,Compound,Eff. %
1,"CC(C)=NOCC(=O)N1CCC(c2nc(-c3cc(-c4ccccc4C=O)on3)cs2)CC1 [I-8, 2-{3-[2-(1-{[(Propan-2-ylideneamino)oxy]acetyl}piperidin-4-yl)-1,3-thiazol-4-yl]-1,2-oxazol-5-yl}benzaldehyde]",89%

# Tested on: not listed separately
# Test: physchem
# Settings: pH 2.7
# Text: The LC-MS determination in the acidic range is effected at pH 2.7 with 0.1% aqueous formic acid and acetonitrile (contains 0.1% formic acid) as eluents; linear gradient from 10% acetonitrile to 95% acetonitrile. • ^[b] The LC-MS determination in the neutral range is effected at pH 7.8 using 0.001 molar aqueous ammonium hydrogencarbonate solution and acetonitrile as eluents; linear gradient from 10% acetonitrile to 95% acetonitrile.
# The calibration is effected with unbranched alkan-2-ones (having 3 to 16 carbon atoms) with known log P values (log P values determined on the basis of the retention times by linear interpolation between two successive alkanones).
row,Compound,chromatographic logP
1,"C#CCOc1ccccc1C1CC(C(C)=O)=NO1 (stereo not drawn) [VIIIa-a-81, 1-[5-(2-{[prop-2-yn-1-yl]oxy}phenyl)-4,5-dihydro-1,2-oxazol-3-yl]ethanone]",4.41
2,"CS(=O)(=O)Oc1cc(C(F)(F)F)ccc1C1CC(C(=O)CCl)=NO1 (stereo not drawn) [VIIa-a-143, 2-[3-(Chloroacetyl)-4,5-dihydro-1,2-oxazol-5-yl]-5-(trifluoromethyl)phenyl methanesulphonate]",3.25
3,"CC(C)=NOCC(=O)N1CCC(c2nc(C3=NOC(c4ccccc4OS(C)(=O)=O)C3)cs2)CC1 (stereo not drawn) [I-12, 2-{3-[2-(1-{[(Propan-2-ylideneamino)oxy]acetyl}piperidin-4-yl)-1,3-thiazol-4-yl]-4,5-dihydro-1,2-oxazol-5-yl}phenyl methanesulphonate]",2.36
4,"CC(=O)OCC(=O)N1CCC(c2nc(C3=NOC(c4ccccc4OS(C)(=O)=O)C3)cs2)CC1 (stereo not drawn) [X-3, 2-{4-[4-(5-{2-[(Methylsulphonyl)oxy]phenyl}-4,5-dihydro-1,2-oxazol-3-yl)-1,3-thiazol-2-yl]piperidin-1-yl}-2-oxoethyl acetate]",2.18
5,"CC(C)(C)[Si](C)(C)OCC(=O)N1CCC(c2nc(C3=NOC(c4ccccc4OS(C)(=O)=O)C3)cs2)CC1 (stereo not drawn) [X-2, 2-(3-{2-[1-({[tert-butyl(dimethyl)silyl]oxy}acetyl)piperidin-4-yl]-1,3-thiazol-4-yl}-4,5-dihydro-1,2-oxazol-5-yl)phenyl methanesulphonate]",4.14
6,"CN(C)CC(=O)N1CCC(c2nc(C3=NOC(c4ccccc4OS(C)(=O)=O)C3)cs2)CC1 (stereo not drawn) [X-1, 2-(3-{2-[1-(N,N-Dimethylglycyl)piperidin-4-yl]-1,3-thiazol-4-yl}-4,5-dihydro-1,2-oxazol-5-yl)phenyl methanesulphonate]",1.48
7,"CS(=O)(=O)Oc1ccccc1C1CC(c2csc(C3CCN(C(=O)CCl)CC3)n2)=NO1 (stereo not drawn) [Xc-a-142, 2-(3-{2-[1-(Chloroacetyl)piperidin-4-yl]-1,3-thiazol-4-yl}-4,5-dihydro-1,2-oxazol-5-yl)phenyl methanesulphonate]",2.42
8,"CC(C)=NOCC(=O)N1CCC(c2nc(-c3cc(-c4ccccc4C=O)on3)cs2)CC1 [I-8, 2-{3-[2-(1-{[(Propan-2-ylideneamino)oxy]acetyl}piperidin-4-yl)-1,3-thiazol-4-yl]-1,2-oxazol-5-yl}benzaldehyde]",2.45
9,"CS(=O)(=O)Oc1ccccc1C1CC(c2csc(C3CCN(C(=O)CO)CC3)n2)=NO1 (stereo not drawn) [XXVIIa-142, 2-{3-[2-(1-glycoloylpiperidin-4-yl)-1,3-thiazol-4-yl]-4,5-dihydro-1,2-oxazol-5-yl}phenyl methanesulphonate]",1.88
10,"COC(C)(OC)C(CC(O)c1ccccc1OCC#C[Si](C)(C)C)=NO (stereo not drawn) [1-hydroxyl-4,4-dimethoxy-1-(2-{[3-(trimethylsilyl)prop-2-yn-1-yl]oxy}phenyl)pentan-3-one oxime]",3.19
11,"CC(C)(C)OC(=O)N1CCC(c2nc(C3=NOC(c4ccc(C(F)(F)F)cc4OS(C)(=O)=O)C3)cs2)CC1 (stereo not drawn) [XVI-143, tert-Butyl 4-[4-(5-{2-[(methylsulphonyl)oxy]-4-(trifluoromethyl)phenyl}-4,5-dihydro-1,2-oxazol-3-yl)-1,3-thiazol-2-yl]piperidine-1-carboxylate]",4.36
